ChEMBL document CHEMBL5634143, “Development of teixobactin analogues containing hydrophobic, non-proteogenic amino acids that are highly potent against multidrug-resistant bacteria and biofilms” (Eur J Med Chem, 2023)
≈ marks a conversion by molar mass, not a printed value.

Legend:
Assay type in all cases: functional
Bacillus cereus = assay: Antibacterial activity against Bacillus cereus ATCC 11788 assessed as inhibition of bacterial growth
[1] = system: Staphylococcus epidermidis; assay: Antibacterial activity against Staphylococcus epidermidis 12228 assessed as inhibition of bacterial growth
Enterococcus faecium [2] = assay: Antibacterial activity against Vancomycin-resistant Enterococcus faecium 1014 assessed as inhibition of bacterial growth
Staphylococcus aureus [3] = assay: Antibacterial activity against Staphylococcus aureus 4299 assessed as inhibition of bacterial growth
Staphylococcus aureus [4] = assay: Antibacterial activity against methicilin-resistant Staphylococcus aureus 42412 assessed as inhibition of bacterial growth
[5] = system: Staphylococcus saprophyticus; assay: Antibacterial activity against Staphylococcus saprophyticus ATCC BAA 750 assessed as inhibition of bacterial growth
Enterococcus faecium [6] = assay: Antibacterial activity against Vancomycin-resistant Enterococcus […] ATCC 29212 assessed as inhibition of bacterial growth; conditions: Enterococcus faecalis
Staphylococcus aureus [7] = assay: Antibacterial activity against Staphylococcus aureus 29213 assessed as inhibition of bacterial growth
Staphylococcus aureus [8] = assay: Antibacterial activity against methicilin-resistant Staphylococcus aureus 21455 assessed as inhibition of bacterial growth
Staphylococcus aureus [9] = assay: Antibacterial activity against methicilin-resistant Staphylococcus aureus 1003 assessed as inhibition of bacterial growth
[10] = system: Staphylococcus saprophyticus; assay: Antibacterial activity against Staphylococcus saprophyticus ATCC 15305 assessed as inhibition of bacterial growth
[11] = system: Staphylococcus saprophyticus; assay: Antibacterial activity against Staphylococcus saprophyticus ATCC 49453 assessed as inhibition of bacterial growth
Enterococcus faecium [12] = assay: Antibacterial activity against Vancomycin-resistant Enterococcus […] ATCC 700802 assessed as inhibition of bacterial growth
Staphylococcus aureus [13] = assay: Antibacterial activity against methicilin-resistant Staphylococcus aureus ATCC 700699 assessed as inhibition of bacterial growth
[14] = system: Staphylococcus saprophyticus; assay: Antibacterial activity against Staphylococcus saprophyticus ATCC 49907 assessed as inhibition of bacterial growth
Bacillus subtilis = assay: Antibacterial activity against Bacillus subtilis ATCC 6633 assessed as inhibition of bacterial growth

Structure (SMILES)	MIC (Bacillus cereus) [µg/mL]	MIC [1] [µg/mL]	MIC (Enterococcus faecium [2]) [µg/mL]	MIC (Staphylococcus aureus [3]) [µg/mL]	MIC (Staphylococcus aureus [4]) [µg/mL]	MIC [5] [µg/mL]	MIC (Enterococcus faecium [6]) [µg/mL]	MIC (Staphylococcus aureus [7]) [µg/mL]	MIC (Staphylococcus aureus [8]) [µg/mL]	MIC (Staphylococcus aureus [9]) [µg/mL]	MIC [10] [µg/mL]	MIC [11] [µg/mL]	MIC (Enterococcus faecium [12]) [µg/mL]	MIC (Staphylococcus aureus [13]) [µg/mL]	MIC [14] [µg/mL]	MIC (Bacillus subtilis) [µg/mL]
CC[C@H](C)[C@H](NC(=O)[C@@H](Cc1ccccc1)NC)C(=O)N[C@@H](CO)C(=O)N[C@H](CCC(N)=O)C(=O)N[C@@H](C(=O)N[C@H](C(=O)N[C@@H](CO)C(=O)N[C@H]1C(=O)N[C@@H](CCCNC(=N)N)C(=O)N[C@@H](C2CCCCC2)C(=O)N[C@@H]([C@@H](C)CC)C(=O)O[C@H]1C)[C@@H](C)CC)[C@@H](C)CC	0.25 (≈ 0.19 µM)	0.063 (≈ 0.048 µM)	0.25 (≈ 0.19 µM)	0.063 (≈ 0.048 µM)	0.063 (≈ 0.048 µM)	0.063 (≈ 0.048 µM)	1 (≈ 0.762 µM)	0.063 (≈ 0.048 µM)	0.5 (≈ 0.381 µM)	0.125 (≈ 0.0952 µM)	< 0.063	0.125 (≈ 0.0952 µM)	0.5 (≈ 0.381 µM)	0.5 (≈ 0.381 µM)	0.063 (≈ 0.048 µM)	0.063 (≈ 0.048 µM)
CCC[C@@H]1NC(=O)[C@H](C)NC(=O)[C@H](NC(=O)[C@H](CO)NC(=O)[C@@H](NC(=O)[C@H](NC(=O)[C@@H](CCCNC(=N)N)NC(=O)[C@H](CO)NC(=O)[C@@H](NC(=O)[C@@H](Cc2ccccc2)NC)[C@@H](C)CC)[C@@H](C)CC)[C@@H](C)CC)[C@H](C)OC(=O)[C@H]([C@@H](C)CC)NC1=O	0.5 (≈ 0.411 µM)	0.063 (≈ 0.0518 µM)	1 (≈ 0.823 µM)	0.063 (≈ 0.0518 µM)	0.063 (≈ 0.0518 µM)	0.063 (≈ 0.0518 µM)	1 (≈ 0.823 µM)	0.125 (≈ 0.103 µM)	0.125 (≈ 0.103 µM)	0.125 (≈ 0.103 µM)	0.063 (≈ 0.0518 µM)	0.063 (≈ 0.0518 µM)	0.5 (≈ 0.411 µM)	0.063 (≈ 0.0518 µM)	0.063 (≈ 0.0518 µM)	0.063 (≈ 0.0518 µM)
CC[C@H](C)[C@H](NC(=O)[C@@H](Cc1ccccc1)NC)C(=O)N[C@@H](CCCNC(=N)N)C(=O)N[C@H](CCC(N)=O)C(=O)N[C@@H](C(=O)N[C@H](C(=O)N[C@@H](CO)C(=O)N[C@H]1C(=O)N[C@@H](C)C(=O)N[C@@H](C2CCCCC2)C(=O)N[C@@H]([C@@H](C)CC)C(=O)O[C@H]1C)[C@@H](C)CC)[C@@H](C)CC	0.063 (≈ 0.0486 µM)	0.063 (≈ 0.0486 µM)	0.063 (≈ 0.0486 µM)	0.063 (≈ 0.0486 µM)	0.063 (≈ 0.0486 µM)	0.063 (≈ 0.0486 µM)	0.125 (≈ 0.0964 µM)	0.063 (≈ 0.0486 µM)	0.125 (≈ 0.0964 µM)	0.063 (≈ 0.0486 µM)	< 0.063	< 0.063	0.063 (≈ 0.0486 µM)	0.063 (≈ 0.0486 µM)	0.063 (≈ 0.0486 µM)	0.063 (≈ 0.0486 µM)
CC[C@H](C)[C@H](NC(=O)[C@@H](Cc1ccccc1)NC)C(=O)N[C@@H](CO)C(=O)N[C@H](CCCNC(=N)N)C(=O)N[C@@H](C(=O)N[C@H](C(=O)N[C@@H](CO)C(=O)N[C@H]1C(=O)N[C@@H](CCCNC(=N)N)C(=O)N[C@@H](C2CCCCC2)C(=O)N[C@@H]([C@@H](C)CC)C(=O)O[C@H]1C)[C@@H](C)CC)[C@@H](C)CC	1 (≈ 0.746 µM)	0.063 (≈ 0.047 µM)	1 (≈ 0.746 µM)	0.5 (≈ 0.373 µM)	0.125 (≈ 0.0932 µM)	0.125 (≈ 0.0932 µM)	1 (≈ 0.746 µM)	0.5 (≈ 0.373 µM)	0.25 (≈ 0.186 µM)	0.5 (≈ 0.373 µM)	< 0.063	0.063 (≈ 0.047 µM)	1 (≈ 0.746 µM)	0.5 (≈ 0.373 µM)	0.063 (≈ 0.047 µM)	0.063 (≈ 0.047 µM)
CCC[C@@H]1NC(=O)[C@H](CCCNC(=N)N)NC(=O)[C@H](NC(=O)[C@H](CO)NC(=O)[C@@H](NC(=O)[C@H](NC(=O)[C@@H](CCCNC(=N)N)NC(=O)[C@H](CCCNC(=N)N)NC(=O)[C@@H](NC(=O)[C@@H](Cc2ccccc2)NC)[C@@H](C)CC)[C@@H](C)CC)[C@@H](C)CC)[C@H](C)OC(=O)[C@H]([C@@H](C)CC)NC1=O	2 (≈ 1.46 µM)	2 (≈ 1.46 µM)	8 (≈ 5.84 µM)	16 (≈ 11.7 µM)	32 (≈ 23.4 µM)	0.5 (≈ 0.365 µM)	32 (≈ 23.4 µM)	16 (≈ 11.7 µM)	16 (≈ 11.7 µM)	> 32	0.25 (≈ 0.183 µM)	0.25 (≈ 0.183 µM)	32 (≈ 23.4 µM)	32 (≈ 23.4 µM)	0.5 (≈ 0.365 µM)	16 (≈ 11.7 µM)
COc1c(N2C[C@@H]3CCCN[C@@H]3C2)c(F)cc2c(=O)c(C(=O)O)cn(C3CC3)c12 [MOXIFLOXACIN]	0.125 (≈ 0.311 µM)	0.063 (≈ 0.157 µM)	16 (≈ 39.9 µM)	0.125 (≈ 0.311 µM)	4 (≈ 9.96 µM)	0.25 (≈ 0.623 µM)	0.25 (≈ 0.623 µM)	0.063 (≈ 0.157 µM)	4 (≈ 9.96 µM)	4 (≈ 9.96 µM)	0.25 (≈ 0.623 µM)	0.25 (≈ 0.623 µM)	0.25 (≈ 0.623 µM)	4 (≈ 9.96 µM)	0.125 (≈ 0.311 µM)	0.031 (≈ 0.0772 µM)
